{
  "source": "ChEMBL document CHEMBL1201862",
  "about": "“PubChem BioAssay data set” (2004)",
  "key": {"[1]": {"molecular_target": "Dual specificity protein phosphatase 3 (Homo sapiens, UniProt P51452)", "sequence (P51452 whole entry)": "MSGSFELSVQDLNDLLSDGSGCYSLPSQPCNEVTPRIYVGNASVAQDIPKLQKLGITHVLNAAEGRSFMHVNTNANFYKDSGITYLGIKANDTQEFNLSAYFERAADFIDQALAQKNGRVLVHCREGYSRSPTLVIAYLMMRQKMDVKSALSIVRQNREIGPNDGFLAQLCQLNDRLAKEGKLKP", "assay": "SAR VHR1 Fluorescent Assay for In Vitro dose response studies Set 2. [Related pubchem assays (depositor defined):AID1654, AID1661, AID1878]", "format": "functional"}, "[2]": {"molecular_target": "G-protein coupled receptor 35 (Homo sapiens, UniProt Q9HC97)", "sequence (Q9HC97 whole entry)": "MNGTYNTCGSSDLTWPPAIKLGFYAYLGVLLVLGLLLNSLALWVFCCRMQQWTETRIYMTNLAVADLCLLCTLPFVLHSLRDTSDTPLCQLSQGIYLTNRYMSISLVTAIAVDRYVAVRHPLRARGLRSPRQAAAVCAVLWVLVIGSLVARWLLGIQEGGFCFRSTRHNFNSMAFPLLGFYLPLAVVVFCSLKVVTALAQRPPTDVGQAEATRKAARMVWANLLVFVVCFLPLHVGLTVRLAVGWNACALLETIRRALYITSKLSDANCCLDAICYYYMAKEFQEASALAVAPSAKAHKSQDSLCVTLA", "assay": "inhibition of zaprinast-stimulated GPR35 beta-arrestin translocation – imaging, U2OS, beta-arrestin-GFP, zaprinast agonist, primary screen (AID 2058);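 also: antagonist potency meaning inhibition of agonist-induced arrestin redistribution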", "format": "functional"}, "[3]": {"molecular_target": "Eukaryotic translation initiation factor 4E (Mus musculus, UniProt P63073)", "sequence (P63073 whole entry)": "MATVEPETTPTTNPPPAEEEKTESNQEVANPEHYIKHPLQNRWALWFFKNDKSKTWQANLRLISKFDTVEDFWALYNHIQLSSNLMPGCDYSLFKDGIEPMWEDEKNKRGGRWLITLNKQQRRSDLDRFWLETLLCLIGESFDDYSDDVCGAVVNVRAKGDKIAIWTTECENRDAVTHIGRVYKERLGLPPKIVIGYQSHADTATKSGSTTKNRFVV", "assay": "blockers of eIF4G binding by eIF4E – biochemical, TR-FRET, dose response (AID 855);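 also: potency for disrupting eIF4E binding to eIF4GI seen as loss of FRET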", "format": "functional"}, "cells": {"assay": "cells", "format": "functional, cell-based"}, "Cytochrome P450 2D6": {"molecular_target": "Cytochrome P450 2D6 (Homo sapiens, UniProt P10635)", "sequence (P10635 whole entry)": "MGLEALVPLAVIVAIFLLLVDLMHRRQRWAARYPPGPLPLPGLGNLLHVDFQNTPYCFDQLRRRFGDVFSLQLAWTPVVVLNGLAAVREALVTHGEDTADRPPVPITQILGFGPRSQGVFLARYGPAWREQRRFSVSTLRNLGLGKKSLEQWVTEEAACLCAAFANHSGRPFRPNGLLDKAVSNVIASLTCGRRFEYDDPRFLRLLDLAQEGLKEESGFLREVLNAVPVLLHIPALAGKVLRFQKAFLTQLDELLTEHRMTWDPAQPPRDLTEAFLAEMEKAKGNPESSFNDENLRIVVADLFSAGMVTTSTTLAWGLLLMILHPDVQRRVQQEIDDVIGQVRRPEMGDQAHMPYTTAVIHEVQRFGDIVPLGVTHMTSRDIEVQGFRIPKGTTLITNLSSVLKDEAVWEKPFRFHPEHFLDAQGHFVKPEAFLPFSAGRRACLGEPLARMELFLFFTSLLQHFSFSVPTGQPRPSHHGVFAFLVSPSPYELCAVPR"}, "Vero": {"tested_on": "Vero", "assay": "viability of Vero cells under compound – cytotoxicity control for flavivirus capping enzyme inhibitors (AID 588742)", "format": "functional", "settings": "Chlorocebus sabaeus"}, "[4]": {"molecular_target": "T1, Histone-lysine N-methyltransferase NSD2 (Homo sapiens, UniProt O96028)", "T1 sequence (O96028 whole entry)": "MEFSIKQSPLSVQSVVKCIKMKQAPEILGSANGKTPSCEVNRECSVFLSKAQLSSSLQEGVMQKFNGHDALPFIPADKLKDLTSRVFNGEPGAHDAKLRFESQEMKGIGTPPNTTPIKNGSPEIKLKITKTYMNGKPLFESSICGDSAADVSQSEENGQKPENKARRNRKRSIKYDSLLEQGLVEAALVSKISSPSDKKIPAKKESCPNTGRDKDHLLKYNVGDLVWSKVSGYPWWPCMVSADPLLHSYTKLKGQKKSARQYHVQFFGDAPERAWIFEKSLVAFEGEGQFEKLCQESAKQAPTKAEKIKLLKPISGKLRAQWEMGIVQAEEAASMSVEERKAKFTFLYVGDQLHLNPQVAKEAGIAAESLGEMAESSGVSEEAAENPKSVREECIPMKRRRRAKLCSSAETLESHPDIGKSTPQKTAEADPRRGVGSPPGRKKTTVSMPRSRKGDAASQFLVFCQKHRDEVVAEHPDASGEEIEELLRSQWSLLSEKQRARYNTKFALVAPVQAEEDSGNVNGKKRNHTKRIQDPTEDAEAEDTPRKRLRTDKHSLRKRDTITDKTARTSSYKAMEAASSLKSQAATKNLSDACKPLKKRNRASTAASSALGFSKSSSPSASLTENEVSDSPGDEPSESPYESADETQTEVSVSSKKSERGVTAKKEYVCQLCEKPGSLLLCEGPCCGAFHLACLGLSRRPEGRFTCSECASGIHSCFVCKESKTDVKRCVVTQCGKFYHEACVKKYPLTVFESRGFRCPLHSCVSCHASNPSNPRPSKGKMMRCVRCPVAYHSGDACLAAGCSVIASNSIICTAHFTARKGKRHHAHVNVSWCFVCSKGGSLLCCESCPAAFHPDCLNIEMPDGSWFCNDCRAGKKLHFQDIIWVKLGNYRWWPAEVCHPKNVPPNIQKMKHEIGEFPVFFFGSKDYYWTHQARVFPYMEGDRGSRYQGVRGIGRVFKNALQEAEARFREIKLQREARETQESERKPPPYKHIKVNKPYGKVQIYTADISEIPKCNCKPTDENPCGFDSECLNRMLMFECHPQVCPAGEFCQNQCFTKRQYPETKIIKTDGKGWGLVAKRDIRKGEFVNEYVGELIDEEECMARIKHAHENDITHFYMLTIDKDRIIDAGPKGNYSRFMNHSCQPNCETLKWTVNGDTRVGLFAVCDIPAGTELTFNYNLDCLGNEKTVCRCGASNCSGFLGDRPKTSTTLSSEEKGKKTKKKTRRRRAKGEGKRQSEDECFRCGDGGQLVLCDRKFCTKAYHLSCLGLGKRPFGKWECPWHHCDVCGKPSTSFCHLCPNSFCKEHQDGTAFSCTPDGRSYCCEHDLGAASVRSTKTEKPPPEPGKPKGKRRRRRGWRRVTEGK", "format": "biochemical"}, "[5]": {"assay": "inhibition of ARNT PAS-B/TACC3 complex formation – biochemical, AlphaScreen, cherry-picked samples, confirmation (AID 651703);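 also: His-tagged ARNT PAS-B domain paired with GST-TACC3 E629A dimer coactivator fragment; potency of inhibitors that break up the complex and lower AlphaScreen signal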", "format": "functional, Homo sapiens"}, "[6]": {"assay": "luciferase reporter signal suppression in cells – H4 neuroglioma cells, luminescence, dose response (AID 1990)", "format": "functional, cell-based"}, "[7]": {"molecular_target": "T2, C-C chemokine receptor type 6 (Homo sapiens, UniProt P51684)", "T2 sequence (P51684 whole entry)": "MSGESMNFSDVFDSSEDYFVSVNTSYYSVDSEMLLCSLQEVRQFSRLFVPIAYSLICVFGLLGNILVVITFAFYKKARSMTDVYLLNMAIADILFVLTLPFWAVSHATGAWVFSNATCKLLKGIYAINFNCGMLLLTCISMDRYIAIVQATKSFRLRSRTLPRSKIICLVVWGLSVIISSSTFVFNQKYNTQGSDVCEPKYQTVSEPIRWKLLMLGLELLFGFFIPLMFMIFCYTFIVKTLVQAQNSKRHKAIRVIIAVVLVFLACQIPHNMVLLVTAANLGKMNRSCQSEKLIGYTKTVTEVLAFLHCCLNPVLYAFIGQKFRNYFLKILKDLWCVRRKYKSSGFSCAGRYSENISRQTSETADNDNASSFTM", "assay": "antagonism of CCR6 beta-arrestin recruitment – cell-based, luminescent beta-arrestin readout, dose response (AID 504728)", "format": "functional"}, "[8]": {"assay": "alpha-synuclein stem-loop luciferase translation blockers – H4 neuroglioma cells, luminescence, confirmation (AID 1988)", "format": "functional, cell-based"}, "[9]": {"assay": "MIN6 cell viability loss – mouse insulinoma, cytotoxicity control, dose response (AID 2122);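 also: confirmatory high-throughput counterscreen run to flag cytotoxic compounds; mouse MIN-6 beta cells carrying an insulin promoter eGFP reporter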", "format": "functional"}, "[10]": {"molecular_target": "Transitional endoplasmic reticulum ATPase (Homo sapiens, UniProt P55072, C522A)", "sequence (P55072 2-806 C522A limits assumed)": "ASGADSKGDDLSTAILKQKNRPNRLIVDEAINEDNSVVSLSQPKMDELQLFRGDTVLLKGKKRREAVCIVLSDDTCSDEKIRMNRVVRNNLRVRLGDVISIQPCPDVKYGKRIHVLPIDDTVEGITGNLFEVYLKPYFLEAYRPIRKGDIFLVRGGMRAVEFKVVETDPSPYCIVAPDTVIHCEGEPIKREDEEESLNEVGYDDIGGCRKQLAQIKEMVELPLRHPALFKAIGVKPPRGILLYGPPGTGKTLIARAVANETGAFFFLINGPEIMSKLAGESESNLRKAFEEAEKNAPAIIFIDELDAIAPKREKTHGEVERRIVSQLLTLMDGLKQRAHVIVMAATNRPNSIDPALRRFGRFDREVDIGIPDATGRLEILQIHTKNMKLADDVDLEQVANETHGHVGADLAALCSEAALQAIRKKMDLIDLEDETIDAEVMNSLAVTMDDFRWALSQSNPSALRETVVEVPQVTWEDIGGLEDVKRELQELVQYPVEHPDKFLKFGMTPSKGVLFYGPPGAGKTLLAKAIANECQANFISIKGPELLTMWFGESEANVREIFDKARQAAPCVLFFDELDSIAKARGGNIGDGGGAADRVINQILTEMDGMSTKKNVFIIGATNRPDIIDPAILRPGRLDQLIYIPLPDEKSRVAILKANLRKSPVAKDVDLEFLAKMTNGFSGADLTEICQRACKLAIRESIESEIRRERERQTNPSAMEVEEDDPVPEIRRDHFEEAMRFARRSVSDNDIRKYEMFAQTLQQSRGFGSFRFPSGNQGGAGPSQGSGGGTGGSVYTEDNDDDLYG", "assay": "C522A mutant p97 ATPase inhibitors, dose response, counter-screen for p97 inhibitor project, biochemical, luminescence (AID 1544)"}, "[11]": {"molecular_target": "Transitional endoplasmic reticulum ATPase (Homo sapiens, UniProt P55072)", "sequence (P55072 whole entry)": "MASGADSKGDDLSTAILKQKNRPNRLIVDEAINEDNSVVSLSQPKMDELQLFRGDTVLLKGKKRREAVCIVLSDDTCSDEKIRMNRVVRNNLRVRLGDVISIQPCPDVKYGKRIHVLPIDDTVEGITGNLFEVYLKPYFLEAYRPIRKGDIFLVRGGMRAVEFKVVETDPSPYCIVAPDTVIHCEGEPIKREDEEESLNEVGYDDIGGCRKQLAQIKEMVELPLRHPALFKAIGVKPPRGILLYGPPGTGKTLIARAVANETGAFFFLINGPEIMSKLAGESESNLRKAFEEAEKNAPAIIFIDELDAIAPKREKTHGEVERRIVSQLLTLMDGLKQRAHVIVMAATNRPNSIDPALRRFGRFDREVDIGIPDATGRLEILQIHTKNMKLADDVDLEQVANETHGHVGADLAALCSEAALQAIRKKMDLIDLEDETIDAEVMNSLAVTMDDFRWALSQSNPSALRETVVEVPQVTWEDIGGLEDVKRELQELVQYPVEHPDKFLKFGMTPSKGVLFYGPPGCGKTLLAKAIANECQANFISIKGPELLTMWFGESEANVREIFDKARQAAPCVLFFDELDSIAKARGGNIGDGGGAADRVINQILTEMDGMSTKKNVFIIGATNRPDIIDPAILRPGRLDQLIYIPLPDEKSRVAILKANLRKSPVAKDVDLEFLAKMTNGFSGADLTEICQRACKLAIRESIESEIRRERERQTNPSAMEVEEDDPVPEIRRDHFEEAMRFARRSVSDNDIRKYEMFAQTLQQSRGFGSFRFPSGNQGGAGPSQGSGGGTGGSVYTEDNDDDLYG", "assay": "p97 ATPase inhibitors, dose response, biochemical (AID 1534)"}},
  "note": "The source made the active and inactive calls.",
  "data": [
    {"smiles": "CCc1nnc(NS(=O)(=O)c2ccc(NC(=S)NC(=O)/C=C/c3ccc(C(C)C)cc3)cc2)s1", "values": [
      {"measurement": "IC50", "setting": "[1]", "result": "15 µM (active)"},
      {"measurement": "IC50", "setting": "[2]", "result": "1.59 µM (active)"},
      {"measurement": "IC50", "setting": "[3]", "result": "22.9 µM (active)"}
    ]},
    {"smiles": "O=C(/C=C/c1ccco1)Nc1ccc(Oc2ccccc2)cc1", "values": [
      {"measurement": "EC50", "setting": "cells", "result": "> 350 µM (not active)"},
      {"measurement": "AC50", "setting": "Cytochrome P450 2D6", "result": "4.47 µM (inconclusive)"}
    ]},
    {"smiles": "COc1ccc(S(=O)(=O)Nc2cc(SCC(=O)O)c(O)c3ccccc23)cc1", "values": [
      {"measurement": "CC50", "setting": "Vero", "result": "20.6 µM (active)"},
      {"measurement": "AC50", "setting": "[4]", "result": "3.56 µM (active)"},
      {"measurement": "AC50", "setting": "[5]", "result": "126 µM (active)"}
    ]},
    {"smiles": "O=C1C(Nc2ccc(O)cc2)=C/C(=N/S(=O)(=O)c2cccs2)c2ccccc21", "values": [
      {"measurement": "EC50", "setting": "[6]", "result": "2.88 µM (inconclusive)"},
      {"measurement": "IC50", "setting": "[7]", "result": "> 66.6 µM (inactive)"},
      {"measurement": "EC50", "setting": "[8]", "result": "5.59 µM (active)"},
      {"measurement": "IC50", "setting": "[9]", "result": "0.702 µM (active)"}
    ]},
    {"smiles": "CC1CC(=O)c2c(cc3c(-c4c(O)cc(O)c5c(O)c6c(cc45)OC(C)CC6=O)c(O)cc(O)c3c2O)O1", "note": "(centres undefined) [CEPHALOCHROMIN]", "values": [
      {"measurement": "IC50", "setting": "[10]", "result": "> 50 µM (not active)"},
      {"measurement": "IC50", "setting": "[11]", "result": "43.9 µM (not active)"}
    ]}
  ]
}
